Data from patent publication US6806377B1, “Preparation of metallocenes carrying a cyclopentadiene comprising a basic donor group” (The University of Leeds, priority 1999, dated 2004).

Key:
[1] = stability towards water, air, moisture and heat (qualitative statements); format: physicochemical; settings: for air / moisture stability: air and moisture
[2] = solubility in solvents (qualitative statements); format: physicochemical
[3] = background statement; cited from earlier work

## (Cp(CH2)2N(CH2)5)2TiMe2 [Compound 3]
[1]
  thermal stability: thermally stable
  air / moisture stability: highly air sensitive

## (CpCH2CH2N(CH2)2(CH2)2)2TiCl2.2HCl [Compound 2]
[1]
  air / moisture stability: air stable
[1]; storage of the protected titanocene
  storage stability: can be stored indefinitely
[2]; polar solvent such as methanol, water and acetonitrile
  solubility in a polar solvent: soluble
[2]; water
  water solubility: water soluble

## (CpCH2CH2N(CH2)2)2)TiCl2 [Compound 1]
[1]
  air / moisture stability: highly air and moisture sensitive
[2]; solvents such as ether and toluene
  solubility in aprotic, polar and non-polar solvents: soluble

## titanocene dichloride
[3]
  stability in aqueous solution: unstable
